{"source": "ChEMBL document CHEMBL1201862", "about": "“PubChem BioAssay data set” (2004)", "key": {"[1]": {"experiment": "NIH3T3 cell viability loss – ATP luminescence, mouse fibroblasts, counter-screen, dose response (AID 2010);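 also: cells exposed to compound for about 90 hours before reading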", "assay_type": "functional, cell-based"}, "Hexokinase HKDC1": {"target": "Hexokinase HKDC1 (Homo sapiens, UniProt Q2TB90)", "sequence (Q2TB90 whole entry)": "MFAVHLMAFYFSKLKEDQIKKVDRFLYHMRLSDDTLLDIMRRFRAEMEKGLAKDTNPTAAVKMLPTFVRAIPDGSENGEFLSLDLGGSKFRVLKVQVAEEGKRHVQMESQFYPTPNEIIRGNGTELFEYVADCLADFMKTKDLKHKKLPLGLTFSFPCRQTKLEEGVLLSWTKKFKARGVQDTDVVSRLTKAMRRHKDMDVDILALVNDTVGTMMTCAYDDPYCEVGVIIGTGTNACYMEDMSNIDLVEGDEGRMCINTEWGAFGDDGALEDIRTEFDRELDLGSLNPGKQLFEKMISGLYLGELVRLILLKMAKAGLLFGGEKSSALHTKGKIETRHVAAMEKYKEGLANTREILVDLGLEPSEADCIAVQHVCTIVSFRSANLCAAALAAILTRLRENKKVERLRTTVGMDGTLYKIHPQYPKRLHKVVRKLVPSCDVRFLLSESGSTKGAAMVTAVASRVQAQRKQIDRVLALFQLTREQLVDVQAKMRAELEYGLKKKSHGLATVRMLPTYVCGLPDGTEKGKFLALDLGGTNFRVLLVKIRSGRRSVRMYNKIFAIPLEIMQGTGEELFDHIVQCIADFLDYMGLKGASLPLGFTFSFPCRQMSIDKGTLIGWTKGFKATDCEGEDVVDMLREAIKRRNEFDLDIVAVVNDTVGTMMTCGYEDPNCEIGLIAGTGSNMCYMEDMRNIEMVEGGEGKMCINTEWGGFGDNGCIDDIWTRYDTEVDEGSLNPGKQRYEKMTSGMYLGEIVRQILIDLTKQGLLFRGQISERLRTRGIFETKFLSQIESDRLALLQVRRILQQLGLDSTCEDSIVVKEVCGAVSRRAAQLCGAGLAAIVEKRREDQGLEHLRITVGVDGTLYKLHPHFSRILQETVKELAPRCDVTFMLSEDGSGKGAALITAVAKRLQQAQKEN", "experiment": "inhibition of HKDC1 glucose phosphorylation – biochemical, W721R variant, dose response (AID 504729)", "assay_type": "functional"}, "A-375": {"test_system": "A-375", "experiment": "MITF: Counter assay: A375 proliferation Measured in Cell-Based System Using Plate Reader - 2084-03_Inhibitor_Dose_DryPowder_Activity. [Related pubchem assays (depositor defined):AID488944]", "assay_type": "functional", "details": "Homo sapiens"}, "[2]": {"target": "T1, Long-chain-fatty-acid--AMP ligase FadD28 (Mycobacterium tuberculosis, UniProt P9WQ59)", "T1 sequence (P9WQ59 whole entry)": "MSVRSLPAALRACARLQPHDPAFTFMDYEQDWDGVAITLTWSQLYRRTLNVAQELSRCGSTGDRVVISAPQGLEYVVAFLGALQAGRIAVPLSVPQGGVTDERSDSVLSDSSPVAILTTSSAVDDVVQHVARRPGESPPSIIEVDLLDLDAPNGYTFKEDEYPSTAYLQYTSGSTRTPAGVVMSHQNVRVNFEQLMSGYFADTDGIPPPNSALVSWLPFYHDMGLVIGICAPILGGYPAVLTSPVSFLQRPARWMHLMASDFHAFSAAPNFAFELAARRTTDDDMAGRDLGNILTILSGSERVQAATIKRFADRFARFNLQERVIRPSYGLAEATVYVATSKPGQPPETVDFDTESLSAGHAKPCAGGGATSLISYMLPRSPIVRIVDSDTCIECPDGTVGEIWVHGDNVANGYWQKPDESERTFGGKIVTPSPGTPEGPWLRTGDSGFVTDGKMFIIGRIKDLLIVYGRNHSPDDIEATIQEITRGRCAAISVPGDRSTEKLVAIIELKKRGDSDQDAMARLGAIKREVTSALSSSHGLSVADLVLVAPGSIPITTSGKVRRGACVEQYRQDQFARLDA", "experiment": "Fluorescence polarization aasay to screen for inhibitors that compete for the binding of FadD28 to a bisubstrate Measured in Biochemical System Using Plate Reader - 2147-01_Inhibitor_Dose_CherryPick_Activity.", "assay_type": "functional, Mycobacterium tuberculosis H37Rv"}, "[3]": {"target": "Ribosomal protein S6 kinase alpha-3 (Homo sapiens, UniProt P51812)", "sequence (P51812 whole entry)": "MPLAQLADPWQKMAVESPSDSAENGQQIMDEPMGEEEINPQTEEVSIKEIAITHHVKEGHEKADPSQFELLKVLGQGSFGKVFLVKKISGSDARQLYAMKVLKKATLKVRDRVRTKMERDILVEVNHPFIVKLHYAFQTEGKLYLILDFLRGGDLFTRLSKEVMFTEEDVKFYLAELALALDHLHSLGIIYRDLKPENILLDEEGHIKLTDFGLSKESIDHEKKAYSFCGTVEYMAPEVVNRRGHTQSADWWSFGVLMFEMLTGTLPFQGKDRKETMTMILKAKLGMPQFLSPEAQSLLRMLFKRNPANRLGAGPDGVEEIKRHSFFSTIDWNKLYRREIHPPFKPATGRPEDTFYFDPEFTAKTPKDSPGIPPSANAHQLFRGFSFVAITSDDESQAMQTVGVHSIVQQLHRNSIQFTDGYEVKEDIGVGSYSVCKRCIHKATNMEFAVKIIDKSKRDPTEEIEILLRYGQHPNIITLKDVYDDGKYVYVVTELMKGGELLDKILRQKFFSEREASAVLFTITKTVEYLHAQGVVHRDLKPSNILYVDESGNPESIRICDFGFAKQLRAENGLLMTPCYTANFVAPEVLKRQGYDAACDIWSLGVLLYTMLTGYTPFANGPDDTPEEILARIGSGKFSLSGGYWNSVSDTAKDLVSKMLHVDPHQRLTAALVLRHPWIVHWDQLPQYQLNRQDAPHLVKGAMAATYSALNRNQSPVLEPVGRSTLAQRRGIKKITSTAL", "assay_type": "functional"}, "[4]": {"target": "Cyclin-dependent kinase 2 (Homo sapiens, UniProt P24941)", "assay_type": "functional"}, "[5]": {"target": "Maternal embryonic leucine zipper kinase (Homo sapiens, UniProt Q14680)", "sequence (Q14680 whole entry)": "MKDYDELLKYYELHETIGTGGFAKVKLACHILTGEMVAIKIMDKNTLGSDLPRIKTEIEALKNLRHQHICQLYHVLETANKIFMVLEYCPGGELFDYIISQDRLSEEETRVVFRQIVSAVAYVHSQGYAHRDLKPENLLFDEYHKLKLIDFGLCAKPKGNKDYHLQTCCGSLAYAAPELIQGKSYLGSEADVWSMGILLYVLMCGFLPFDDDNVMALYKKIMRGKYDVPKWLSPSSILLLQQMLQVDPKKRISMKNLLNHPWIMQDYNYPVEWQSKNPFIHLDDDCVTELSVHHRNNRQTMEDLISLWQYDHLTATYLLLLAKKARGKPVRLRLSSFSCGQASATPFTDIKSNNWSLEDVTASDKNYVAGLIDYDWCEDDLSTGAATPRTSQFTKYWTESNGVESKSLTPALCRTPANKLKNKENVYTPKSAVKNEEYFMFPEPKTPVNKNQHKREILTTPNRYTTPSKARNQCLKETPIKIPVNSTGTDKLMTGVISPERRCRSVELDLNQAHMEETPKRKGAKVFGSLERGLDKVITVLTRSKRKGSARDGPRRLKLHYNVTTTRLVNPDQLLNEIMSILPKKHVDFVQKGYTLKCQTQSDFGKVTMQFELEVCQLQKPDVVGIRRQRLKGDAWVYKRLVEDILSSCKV", "assay_type": "functional"}, "[6]": {"target": "Mitogen-activated protein kinase kinase kinase kinase 5 (Homo sapiens, UniProt Q9Y4K4)", "sequence (Q9Y4K4 whole entry)": "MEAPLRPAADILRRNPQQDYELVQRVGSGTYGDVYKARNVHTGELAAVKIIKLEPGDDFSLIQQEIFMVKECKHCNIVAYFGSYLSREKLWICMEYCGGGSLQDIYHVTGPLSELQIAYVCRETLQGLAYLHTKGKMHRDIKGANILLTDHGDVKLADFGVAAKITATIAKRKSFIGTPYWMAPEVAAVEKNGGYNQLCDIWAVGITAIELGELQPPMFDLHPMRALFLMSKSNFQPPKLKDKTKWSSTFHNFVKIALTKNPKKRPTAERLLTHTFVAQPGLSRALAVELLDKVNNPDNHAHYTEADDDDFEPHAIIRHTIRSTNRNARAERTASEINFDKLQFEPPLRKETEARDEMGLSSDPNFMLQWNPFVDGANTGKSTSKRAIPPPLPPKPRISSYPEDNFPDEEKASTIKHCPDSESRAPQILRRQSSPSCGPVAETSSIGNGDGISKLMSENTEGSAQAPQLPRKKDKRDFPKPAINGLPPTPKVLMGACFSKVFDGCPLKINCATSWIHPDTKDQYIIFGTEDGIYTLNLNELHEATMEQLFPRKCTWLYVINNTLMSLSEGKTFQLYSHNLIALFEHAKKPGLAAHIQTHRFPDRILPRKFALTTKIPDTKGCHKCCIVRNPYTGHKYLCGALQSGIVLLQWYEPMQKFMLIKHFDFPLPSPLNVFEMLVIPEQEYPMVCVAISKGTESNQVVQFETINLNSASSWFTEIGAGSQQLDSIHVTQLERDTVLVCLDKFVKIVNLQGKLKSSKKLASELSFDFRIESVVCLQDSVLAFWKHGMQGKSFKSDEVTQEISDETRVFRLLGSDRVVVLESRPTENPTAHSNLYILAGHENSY", "assay_type": "functional"}, "[7]": {"target": "Serine/threonine-protein phosphatase PP1-alpha catalytic subunit (Homo sapiens, UniProt P62136)", "sequence (P62136 whole entry)": "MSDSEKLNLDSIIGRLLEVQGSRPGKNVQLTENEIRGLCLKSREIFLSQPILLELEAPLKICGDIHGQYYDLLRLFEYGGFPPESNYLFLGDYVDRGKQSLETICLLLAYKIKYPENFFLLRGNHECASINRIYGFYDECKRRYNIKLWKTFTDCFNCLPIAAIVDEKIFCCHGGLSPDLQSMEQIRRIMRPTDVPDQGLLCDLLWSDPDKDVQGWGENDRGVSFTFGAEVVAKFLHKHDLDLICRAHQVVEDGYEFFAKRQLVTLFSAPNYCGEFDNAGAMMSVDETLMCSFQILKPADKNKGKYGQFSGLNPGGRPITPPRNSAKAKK", "experiment": "inhibition of protein phosphatase 1 activity – biochemical, fluorescence, dose response (AID 2394)"}, "[8]": {"target": "T2, Histone-lysine N-methyltransferase NSD2 (Homo sapiens, UniProt O96028)", "T2 sequence (O96028 whole entry)": "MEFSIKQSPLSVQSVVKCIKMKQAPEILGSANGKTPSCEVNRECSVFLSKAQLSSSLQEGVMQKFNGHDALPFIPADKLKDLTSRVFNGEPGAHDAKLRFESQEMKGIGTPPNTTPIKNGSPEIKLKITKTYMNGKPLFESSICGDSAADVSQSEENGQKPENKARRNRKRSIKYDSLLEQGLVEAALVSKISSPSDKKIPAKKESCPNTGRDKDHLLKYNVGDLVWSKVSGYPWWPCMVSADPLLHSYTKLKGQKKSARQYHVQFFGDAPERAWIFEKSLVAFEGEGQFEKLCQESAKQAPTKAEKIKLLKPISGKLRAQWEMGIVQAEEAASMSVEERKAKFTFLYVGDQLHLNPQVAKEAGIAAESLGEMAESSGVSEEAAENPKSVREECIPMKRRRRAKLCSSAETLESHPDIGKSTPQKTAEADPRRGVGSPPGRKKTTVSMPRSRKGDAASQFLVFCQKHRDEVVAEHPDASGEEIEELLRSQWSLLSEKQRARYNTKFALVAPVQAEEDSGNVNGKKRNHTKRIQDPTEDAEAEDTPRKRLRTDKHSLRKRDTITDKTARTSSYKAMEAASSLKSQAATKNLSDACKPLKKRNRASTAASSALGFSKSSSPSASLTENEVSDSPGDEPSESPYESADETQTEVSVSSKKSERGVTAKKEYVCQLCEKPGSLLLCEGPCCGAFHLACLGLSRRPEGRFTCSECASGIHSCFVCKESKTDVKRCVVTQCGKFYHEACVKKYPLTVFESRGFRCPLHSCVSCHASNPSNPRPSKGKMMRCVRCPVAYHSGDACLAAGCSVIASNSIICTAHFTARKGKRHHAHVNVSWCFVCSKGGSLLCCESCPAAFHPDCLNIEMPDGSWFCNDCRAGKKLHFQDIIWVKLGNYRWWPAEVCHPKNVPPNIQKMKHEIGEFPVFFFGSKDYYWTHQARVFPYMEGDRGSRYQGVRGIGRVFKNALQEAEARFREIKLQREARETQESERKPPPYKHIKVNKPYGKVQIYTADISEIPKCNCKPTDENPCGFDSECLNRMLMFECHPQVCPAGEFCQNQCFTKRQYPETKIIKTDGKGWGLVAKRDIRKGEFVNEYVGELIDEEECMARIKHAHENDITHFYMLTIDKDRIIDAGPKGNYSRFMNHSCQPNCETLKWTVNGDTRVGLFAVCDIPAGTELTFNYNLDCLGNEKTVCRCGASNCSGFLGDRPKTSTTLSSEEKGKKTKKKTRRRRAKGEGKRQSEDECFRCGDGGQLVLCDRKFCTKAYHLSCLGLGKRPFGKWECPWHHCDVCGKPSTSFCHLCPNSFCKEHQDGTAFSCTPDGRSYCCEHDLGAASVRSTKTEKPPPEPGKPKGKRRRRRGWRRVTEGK", "assay_type": "biochemical"}}, "note": "The source made the active and inactive calls.", "data": [{"smiles": "CC(C)CC(=O)NC(c1cccs1)c1ccc2cccnc2c1O", "note": "(centres undefined)", "values": [{"measurement": "EC50", "setting": "[1]", "value": "1.48 µM (active)"}]}, {"smiles": "CCOC(=O)c1ccc(NC2=CC(=O)C(=O)c3ccccc32)cc1", "values": [{"measurement": "IC50", "setting": "Hexokinase HKDC1", "value": "43.9 µM (inactive)"}, {"measurement": "AC50", "setting": "A-375", "value": "6.65 µM (active)"}]}, {"smiles": "CCCCCCCCCCCCCCCC[N+](C)(C)C", "values": [{"measurement": "AC50", "setting": "[2]", "value": "12.7 µM (active)"}]}, {"smiles": "NC1CCC(Nc2nc(Cl)cc(-c3c[nH]c4ncccc34)n2)CC1", "note": "(centres undefined)", "values": [{"measurement": "Ki", "setting": "[3]", "value": "0.0126 µM (active)"}, {"measurement": "pKi", "setting": "[3]", "value": 7.9}, {"measurement": "Ki", "setting": "[4]", "value": "0.0316 µM (active)"}, {"measurement": "pKi", "setting": "[4]", "value": 7.5}, {"measurement": "Ki", "setting": "[5]", "value": "0.00316 µM (active)"}, {"measurement": "pKi", "setting": "[5]", "value": 8.5}, {"measurement": "Ki", "setting": "[6]", "value": "0.0501 µM (active)"}, {"measurement": "pKi", "setting": "[6]", "value": 7.3}]}, {"smiles": "COc1ccc(C(=O)c2nccc3cc(OC)c(OC)cc23)cc1OC", "values": [{"measurement": "IC50", "setting": "[7]", "value": "> 67 µM (not active)"}, {"measurement": "AC50", "setting": "[8]", "value": "6.77 µM (active)"}]}]}
